Experimental data from US11173127B2, “Potato protein nanoparticles” (priority 2013, dated 2021).
“Also recorded” adds a separate entry of the source.

Legend:
Assay type in all cases: physicochemical
[1] = Simulated shelf life test at 23° C. and pH 2.5, exposed to light; conditions: pH 2.5, light
Experimental: PP-VD3 nanoparticles and VD3 suspensions were prepared in glass test tubes at pH 2.5, pasteurized for 1 min at 88° C. in open test tubes, and then capped, cooled and maintained at room temperature (23° C.) exposed to light, and followed with time. Samples for all shelf life tests were prepared without any preservative.
Samples of 1 ml containing 100 μg/ml VD3 in buffer and 1 mg/ml PP were prepared. The samples were individually prepared in order to perform total volume extractions, minimizing transfer/precipitation losses. Three tubes of each type were quantified immediately, to serve as control. All the remaining tubes were then pasteurized. Three tubes of each type were quantified immediately, to serve as reference. The other tubes were stored at the conditions described above. At each time point, three tubes of each type were taken from storage and their VD3 content was quantified. In all experiments, the tubes were stored covered with their lids to prevent evaporation.
Further tests that show the great advantage of the present invention in conferring exceptional stability to active ingredient is provided in FIG. 8. […] Thus, the shelf life test examined the VD3 stability at low pH (2.5) and exposure to light, during time.

[2] = VD retention at pH 2.5 and 25° C. (RP-HPLC); conditions: pH 2.5, 25° C., with 1.5 mg/ml potato protein vs without; VD 0.1 mg/ml
Experimental: The percentage of VD retention within the composition at pH 2.5, and 25° C. was also assessed, in the presence and absence of 1.5 mg/ml potato protein. VD concentration at time zero was 0.1 mg/ml. […] The measurements were done using RP-HPLC.

[3] = VD3 degradation under industrial pasteurization and hot-bottling conditions (88° C., 1 min); conditions: cooled 30 min to 30-35° C., pH 2.5, 100 μg/ml VD3, PP 1 mg/ml where present
Experimental: VD3 in phosphate buffer, and PP-VD3 nanoparticles were prepared at 1 mg/ml potato protein (PP) and 100 μg/ml VD3 at pH 2.5.
Samples (without a cap) were heated in a water bath for 1 min at 88° C. Following heat treatment, samples were capped and maintained at room temperature for 30 minutes until their temperature decreased to 30-35° C. Controls of VD3, PP and PP-VD3 nanoparticles, at pH 2.5, were extracted immediately without any heat treatment. The other samples were extracted at room temp after the above heat treatment.
VD3 was extracted and quantified using a protocol based on Haham, et al. (Haham, M., et al., Stability and bioavailability of vitamin D nanoencapsulated in casein micelles. Food & Function, 2012). The protocol, used on both aqueous solutions (with and without PP), was as follows: 1 ml of VD3-containing sample was put into a glass test tube. 3 ml of a 2:1 chloroform:methanol mixture was then added, and the tubes were vortexed for ˜20 seconds. […]
Following extraction, 1.5 ml of RP-HPLC mobile phase (methanol:acetonitrile:water 49.5:49.5:1, by volume) were added to the drying vial, given 15 minutes to equilibrate after vortexing, and then transferred to a 1.5 ml glass HPLC vial. […] In the mobile phase, VD3 has a local UV absorption maximum at 267 nm, and so the 267 nm chromatogram was used for VD3 quantification.

[4] = Dynamic light scattering particle size distribution; conditions: VD without potato protein, 10-50 ug/ml VD, phosphate buffer 25 mM pH 2.5, bimodal distribution
Experimental: Dynamic light scattering (DLS) was used to evaluate size distribution of the potato protein-VD complexes.
The particle size of VD without potato protein was measured with different concentration of VD—10, 25, 35 and 50 ug/ml VD in a phosphate buffer (25 mM, pH 2.5). In all concentrations a bimodal distribution was obtained, with diameter larger than 1500 nm.
The size distributions of the VD—potato protein nano-particles were also measured at several concentrations of VD—10, 25, 35 and 50 μg/ml VD. The size distributions (FIG. 3) consisted of two fractions. The first fraction (84% by volume) comprised the small nano-particles of about 15 nm diameter, while the second fraction comprised nano-particles whose average diameter was around 80 nm.

[5] = VD retention during pasteurization at 72° C. and pH 2.5 (RP-HPLC); conditions: pH 2.5, at least 60 seconds, with 1.5 mg/ml potato protein vs without, VD 0.1 mg/ml
Experimental: The percentage of VD retention within the composition was assessed during pasteurization at 72° C. and pH 2.5 for up to 60 seconds, in the presence and absence of 1.5 mg/ml potato protein. VD concentration at time zero was 0.1 mg/ml. The measurements were done using RP-HPLC. The samples were kept in the dark and the vials' head spaces were filled with argon to prevent oxidation until the analysis.

[6] = Effect of potato protein on solubilization and transparency (visual); conditions: for appearance / turbidity of solution: 25 mM phosphate buffer pH 2.5, without potato protein
Experimental: First, the effect of potato protein on solubilization and transparency of vitamin D (VD) was assessed. Two aqueous buffer solutions (25 mM phosphate buffer, pH 2.5) containing the same concentration of VD (0.1 mg/ml) were used. Only one vial (left vial of FIG. 1a) also included 1.5 mg/ml potato protein. It is clearly seen that due to the presence of the potato protein, the solution containing VD is transparent, while the one devoid of potato protein is turbid.
Second, the effect of potato protein on solubilization and transparency of omega 3 was also assessed. Specifically, two aqueous buffer solutions (25 mM phosphate buffer, pH 2.5) contained the same concentration of 0.5 ul/ml omega 3 (ethyl ester DHA) colored with Nile red, which is only pink in a hydrophobic environment. One vial (left vial of FIG. 1b) also contained 1.5 mg/ml potato protein.
Thus, the potato protein nanoparticle solubilized the hydrophobic ingredient in a uniform, transparent, manner.

Structure (SMILES)	VD degraded / lost ([1]; after one week)	post-pasteurization VD3 lost ([1]; within 24 hours) [%]	protection of VD (VD retention) [2]	VD degraded / lost by heat treatment [3] [%]	particle diameter (DLS) [4] [nm]	protection against heat induced degradation (VD retention) [5]	appearance / transparency of solution ([6]; 25 mM phosphate buffer pH 2.5, with 1.5 mg/ml potato protein)	appearance / turbidity of solution [6]
C=C1CC[C@H](O)C/C1=C/C=C1\CCC[C@]2(C)[C@@H]([C@H](C)CCCC(C)C)CC[C@@H]12 [VD, Vitamin D3]	almost all	52	significant protection	55	> 1500	significant protection	transparent	turbid; also recorded: much more turbid
CC/C=C\C/C=C\C/C=C\C/C=C\C/C=C\C/C=C\CCC(=O)OCC [omega 3, omega 3 DHA (ethyl ester)]	–	–	–	–	–	–	–	much more turbid
